Laboratory results taken from paper PMC11680790, “Structural and functional determination of peptide versus small molecule ligand binding at the apelin receptor” (Nature Communications, 2024).
Changes are numbered by the printed parent chain. Where no end group is shown, it is not given here. 647 dye = not defined here

Tests used:
[1] = biological target: T1, wild-type apelin receptor (Homo sapiens, UniProt P35414); test: Saturation radioligand binding, CHO-K1 membranes, wild-type; details: WT; mean ± SD, n = 3
T1 construct: expressed in transfected cells; host or cells: CHO-K1 (ECACC 85051005), transient, pcDNA3.1
T1 sequence (P35414 1-380): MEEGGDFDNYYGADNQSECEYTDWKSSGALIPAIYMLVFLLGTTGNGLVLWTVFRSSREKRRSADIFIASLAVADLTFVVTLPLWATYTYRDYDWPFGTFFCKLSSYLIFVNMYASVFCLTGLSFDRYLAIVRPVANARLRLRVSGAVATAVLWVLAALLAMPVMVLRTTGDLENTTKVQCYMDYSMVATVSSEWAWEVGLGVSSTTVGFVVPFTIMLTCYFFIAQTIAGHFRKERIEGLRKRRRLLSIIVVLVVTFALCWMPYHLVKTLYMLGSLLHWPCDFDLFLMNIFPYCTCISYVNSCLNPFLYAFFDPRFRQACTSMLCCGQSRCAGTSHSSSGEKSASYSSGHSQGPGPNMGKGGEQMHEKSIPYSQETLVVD
Experimental: (§1) The radiolabel has a specific activity of 2200 Ci/mmol. Plastic-ware used in radioligand binding experiments was coated with Sigmacote, a siliconising reagent that forms a covalent film to reduce sticking of the radiolabel.
(§2) Membrane protein preparations were made by harvesting CHO-K1 cells transiently transfected with wild-type or variant apelin receptor construct into tubes. Tubes were spun at 1000 xg for 10 min at 4 °C to pellet cells, before resuspending and triturating in ice-cold TRIS wash buffer (50 mM TRIS-HCl in deionised water, pH balanced to 7.4 at room temperature) to induce complete hypotonic lysis of cells. Cells were spun a second time at 21,000 × g for 20 min at 4 °C, to obtain a crude membrane fraction. Supernatant was discarded and membrane preparations resuspended in TRIS wash buffer. Cell membrane preparations were stored at –70 °C until use in experiments. Protein concentration of cell membrane preparations was determined using a DC Protein Assay (Bio-Rad), as per the manufacturer’s instructions.
(§3) For binding experiments, membrane preparations were diluted in binding buffer (50 mM TRIS-HCl and 5 mM MgCl2, balanced to pH 7.4 at room temperature) to give a final protein concentration of 1 mg/mL. […] At the end-point, samples were spun in a centrifuge at 20,000 × g for 10 min at 4 °C to terminate equilibrium. […]

[2] = biological target: T2, V/L38^1.42 variant apelin receptor (Homo sapiens, UniProt P35414, V38L); test: Saturation radioligand binding, CHO-K1 membranes, V/L38^1.42
T2 construct: expressed in transfected cells; host or cells: CHO-K1, transient, pcDNA3.1
T2 sequence (P35414 1-380 V38L): T1 sequence (P35414 1-380) with V38L
Experimental: as §1, §2, §3

[3] = system: G/X45^1.49 variant apelin receptor; test: Saturation radioligand binding, CHO-K1 membranes, G/X45^1.49; parameters: species or system human
Experimental: as §1, §2
(§4) For binding experiments, membrane preparations were diluted in binding buffer (50 mM TRIS-HCl and 5 mM MgCl2, balanced to pH 7.4 at room temperature) to give a final protein concentration of 1 mg/mL. […] At the end-point, samples were spun in a centrifuge at 20,000 × g for 10 min at 4 °C to terminate equilibrium. Supernatant was aspirated, and pellets were resuspended and triturated in 500 μL ice-cold wash buffer, over ice. Samples were spun a second time at 20,000 × g for 10 min at 4 °C, before aspiration of the supernatant. Radioactivity in pellets was counted using a Cobra II model 5003 gamma counter (Packard).
(§5) Saturation binding data were analysed using the EBDA and LIGAND components of the KELL (Kinetic, EBDA, Ligand, Lowry) software package (Biosoft)[58] to generate receptor affinity (KD) and receptor density (Bmax) values. […] Saturation data were presented using the nonlinear one site-specific binding with Hill slope model fitted by GraphPad Prism version 6.07 for Windows (GraphPad Software).

[4] = biological target: T3, T/M89^2.64 variant apelin receptor (Homo sapiens, UniProt P35414, T89M); test: Saturation radioligand binding, CHO-K1 membranes, T/M89^2.64; details: mean ± SD, n = 3
T3 construct: expressed in transfected cells; host or cells: CHO-K1, transient, pcDNA3.1
T3 sequence (P35414 1-380 T89M): T1 sequence (P35414 1-380) with T89M
Experimental: as §1, §2, §3

[5] = biological target: T4, R/H168^4.64 variant apelin receptor (Homo sapiens, UniProt P35414, R168H); test: Saturation radioligand binding, CHO-K1 membranes, R/H168^4.64
T4 construct: expressed in transfected cells; host or cells: CHO-K1, transient, pcDNA3.1
T4 sequence (P35414 1-380 R168H): T1 sequence (P35414 1-380) with R168H
Experimental: as §1, §2, §3

[6] = system: T/X227^5.64 variant apelin receptor; test: Saturation radioligand binding, CHO-K1 membranes, T/X227^5.64; parameters: species or system human
Experimental: as §1, §2, §4, §5

[7] = system: untransfected CHO-K1 cells; test: Saturation radioligand binding, untransfected CHO-K1 membranes
[8] = system: R/H168^4.64 apelin receptor, hESC; test: Saturation radioligand binding, R/H168^4.64 hESC membranes; parameters: species or system human
Experimental: as §1, §2, §3

[9] = system: R/H168^4.64 apelin receptor, hESC-CM; test: Saturation radioligand binding, R/H168^4.64 hESC-CM membranes; parameters: species or system human
Experimental: as §1, §2, §3

[10] = biological target: apelin receptor, homogenised human left ventricle; details: previously determined by saturation analysis in homogenised human left ventricle; cited from earlier work
Experimental: Heart Homogenate. Ethically approved (Research Ethics Committee 05/Q104/142) surgical samples of human left ventricle tissue were obtained with informed consent at the time of operation from Royal Papworth Hospital Tissue Bank and stored at -80°C. Tissues were homogenised using a Polytron Homogenizer (Thomas Scientific), in buff ...

[11] = system: G/X45^1.49 variant apelin receptor; test: High content screening, fluorescent ligand binding in transfected CHO-K1 cells, G/X45^1.49; parameters: species or system human; details: 1 µM, 90 min, mean ± SD, n = 4 in triplicate
Experimental: (§6) Cells were maintained at 37 °C, in humidified air containing 5% CO2.
(§7) High content screening was used to characterise apelin receptor variant expression, membrane localisation, and fluorescent ligand binding. CHO-K1 cells transiently transfected with wild-type or variant apelin receptor construct tagged C-terminally with eGFP were plated at ~10,000/well in CellCarrier-96 Ultra Plates (PerkinElmer). […] Fluorescent ligand was washed out with HBSS, and cells were fixed with 4% formaldehyde for ~3 min. […] After a final wash, cells were maintained in 100 µL HBSS.
(§8) Cells maintained in the 96-well plates were imaged on an Opera Phenix High Content Screening System (PerkinElmer), a highly sensitive, dual-camera spinning disk confocal fluorescent imaging platform, using a 40x/NA1.1 water immersion objective. […] Three fluorescent channels were used. […] For all channels, excitation laser intensity was set at 50% power, with a 50 ms exposure time. Additionally, each imaging field was imaged using bright-field and digital phase contrast (DPC). […]
(§9) Mean membrane fluorescence was then quantified for the green channel as an indication of membrane protein expression, and for the red channel as an indication of fluorescent ligand binding.

[12] = system: T/X227^5.64 variant apelin receptor; test: High content screening, fluorescent ligand binding in transfected CHO-K1 cells, T/X227^5.64; parameters: species or system human; details: 1 µM, 90 min, mean ± SD, n = 4 in triplicate
Experimental: as §6, §7, §8, §9

[13] = 90 min, room temperature, pH 7.4

For `CCCC[C@H](NC(=O)[C@@H]1CCCN1C(=O)CNC(=O)[C@H](CCCCN)NC(=O)[C@H](Cc1c[nH]cn1)NC(=O)[C@H](CO)NC(=O)[C@H](CC(C)C)NC(=O)[C@H](CCCNC(=N)N)NC(=O)[C@@H]1CCCN1C(=O)[C@H](CCCNC(=N)N)NC(=O)[C@@H]1CCC(=O)N1)C(=O)N1CCC[C@H]1C(=O)N[C@@H](Cc1ccc(O)c(I)c1)C(=O)O` [[^125I]-apelin-13], the Bmax [1] was 236.80 ± 27.07 fmol/mg, the “Hill slope (nH)” value [1] was 1.26 ± 0.22 and the Bmax [2] was “NBD”. For the same molecule, the “Hill slope (nH)” value [2] was “NBD”, the Bmax [3] was “NBD” and the “Hill slope (nH)” value [3] was “NBD”. The KD [3, 13] was “NBD”, the Bmax [4] was 440.47 ± 38.36 fmol/mg and the “Hill slope (nH)” value [4] was 1.55 ± 0.22. For the same molecule, the Bmax [5] was “NBD”, the “Hill slope (nH)” value [5] was “NBD” and the Bmax [6] was “NBD”. For the same molecule, the “Hill slope (nH)” value [6] was “NBD”, the KD [6, 13] was “NBD” and the Bmax [7] was “NBD”. The “Hill slope (nH)” value [7] was “NBD”, the KD [7, 13] was “NBD” and the “[125I]-apelin-13 binding versus wild-type” value [8] was “significantly reduced”. For the same molecule, the “[125I]-apelin-13 binding versus wild-type” value [9] was “significantly reduced” and the Kd [10] was 0.076 nM.
With “ELA647: fluorescently labelled ELA peptide ({647 dye}-QRPVNLTMRRKLRKHNCLQRRCMPLHSRVPFP; ends and bridges not checked; UniProt P0DMC3 23-54, looked up)” the “Mem. ELA647” value [11] was 20.73 ± 12.55 % WT and the “Mem. ELA647” value [12] was 14.83 ± 7.02 % WT.
